Measured values published in patent US20150018369A1 (priority 2012, published 2015).
Where two headings read alike, the source gives them in different places.

How the values were obtained:
T98 g cells = assay: Cell viability assay (WST-1), SAR of AI compounds at inducing cell death; assay type: cell-based, human
Protocol: (§1) Cells were plated media supplemented with 10% serum in 96-well plates (10^4 cells per wellI; 0.1 ml per well). Once they reached ˜70% confluence, they were rinsed with PBS and kept for an additional 24 his in media supplemented with 1% serum, at which time drugs or vehicle (DMSO, 0.1%, prepared in 10 μl serum-free media) were directly added to each well. After 3 days, cell viability was assessed using the Cell Proliferation Reagent WST-1 (Roche, Indianapolis, Ind.). Briefly, WST-1 reagent (10 μl) was added to each well for 3 hrs at 37° C. with 5% CO2 and WST-1 products were read at 450 nm using Packard SpectraCount™.
Because the strongest toxic effect of WIN55212-2 (ST-1) was measured in T98 g cells, these cells are used as readout to study the structure activity relationship (SAR) of AI compounds at inducing cell death. Table 2 provides the chemical structure, potency and efficacy of several AI compounds.

[1] = test system: protein expressed by NG108-15 cells; settings: cited from earlier work
[2] = test system: T98 g, MDA231 and sknmc cells; assay: Killing of cell lines lacking CB1/CB2 (sensitivity profile); assay type: cell-based, human; settings: T98 g, MDA231 and sknmc cells
Protocol: as §1
Based on this evidence, it was determined if WIN55212-2 differentially kills T98 g, MDA231 and […] cells, thus providing an index of AI receptor functionality in these cells. Also tested is Δ^9-THC (classic cannabinoid) and CP55940 (non-classical cannabinoid).

AI receptors = assay: GTPγS binding in HEK293 cell homogenates; assay type: biochemical, human
Description: When comparing the overall amino acid sequence of GPR124 to that of CB1 and CB2 receptors no significant homology was found. However, when focusing the comparison to the amino acid sequence encoding for the third transmembrane domains of GPR124 and CB2 receptors, 84% homology was found (FIG. 5a). […] Therefore, it is likely that ST-1, ST-11, and other AI compounds interact directly with the third transmembrane domain of GPR124. To determine the signaling mechanism of AI receptors, effect of ST-11 in HEX293 cells, which express GPR124 endogenously and commonly used to study GPCR pharmacology and signaling pathway, was tested.

human CB1 receptors = biological target: T1, human CB1 receptors (Homo sapiens, UniProt P21554); assay: HA-tagged receptor internalization, CB1; assay type: cell-based; settings: FIG. 2a
T1 construct: HA; expressed in transfected cells
T1 sequence (P21554 whole entry): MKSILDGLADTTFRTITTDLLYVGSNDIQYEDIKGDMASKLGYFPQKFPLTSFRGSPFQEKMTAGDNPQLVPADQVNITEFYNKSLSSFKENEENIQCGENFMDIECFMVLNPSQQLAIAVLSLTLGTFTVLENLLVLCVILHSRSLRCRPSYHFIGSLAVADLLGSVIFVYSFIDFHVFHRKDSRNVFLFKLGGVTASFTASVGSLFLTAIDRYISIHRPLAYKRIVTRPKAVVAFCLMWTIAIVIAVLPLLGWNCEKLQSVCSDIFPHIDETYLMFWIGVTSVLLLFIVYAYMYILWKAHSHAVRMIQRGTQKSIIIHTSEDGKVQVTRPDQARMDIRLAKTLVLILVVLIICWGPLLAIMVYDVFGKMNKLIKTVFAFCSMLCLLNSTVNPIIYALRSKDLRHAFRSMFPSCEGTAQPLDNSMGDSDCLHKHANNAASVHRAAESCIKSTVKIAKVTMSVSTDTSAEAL
Description: (§2) FIGS. 2d and 2e illustrate the co-docking of CP55940 and either WIN55212-2 (d) or ST-11 (e) in hCB1 receptors.

CB2 = CB2 (Homo sapiens, UniProt P34972); assay: HA-tagged receptor internalization, CB2; assay type: cell-based; parameters: HA; expressed in transfected cells; settings: FIG. 2b
Sequence of CB2 (P34972 whole entry): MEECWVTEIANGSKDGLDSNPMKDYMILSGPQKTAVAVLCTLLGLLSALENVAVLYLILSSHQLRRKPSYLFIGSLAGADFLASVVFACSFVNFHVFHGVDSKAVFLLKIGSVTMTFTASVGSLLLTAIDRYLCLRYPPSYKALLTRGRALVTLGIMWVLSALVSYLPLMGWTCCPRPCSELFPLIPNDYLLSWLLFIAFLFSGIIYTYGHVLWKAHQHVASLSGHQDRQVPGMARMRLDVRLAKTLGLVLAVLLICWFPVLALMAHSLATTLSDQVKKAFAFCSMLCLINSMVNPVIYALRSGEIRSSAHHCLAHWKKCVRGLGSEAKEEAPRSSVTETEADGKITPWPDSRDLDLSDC
Description: as §2

[3] = T98 g cells, cell death, viability after 3 days
[4] = Homo sapiens, T98G, 72 h, T98 g cells, cell death, viability after 3 days, read-out: EC50

With Cc1c(C(=O)Cn2cnc3ccccc3c2=O)c2ccccc2n1C [ST-5] the “EC50 (μM)” value (T98 g cells; [3]) was “inactive”.
With O=C(c1ccccc1)c1cn(CC(=O)N2CCOCC2)c2ccccc12 [ST-46] the “EC50 (μM)” value (T98 g cells; [3]) was “inactive”.
In the case of Cc1ccc(C(=O)c2c(C(F)(F)F)n(CCN3CCOCC3)c3ccccc23)c2ccccc12 [ST-28], the EC50 (T98 g cells; Homo sapiens, T98G, 72 h) is reported as 2.7 µM.
Work on CCn1c2ccccc2c2cc(C(=O)c3ccc(C)c4ccccc34)ccc21 [ST-34, (9-ethyl-9H-carbazol-3-yl)(4-methylnaphthalen-1-yl)methanone] yielded an EC50 (T98 g cells; Homo sapiens, T98G, 72 h) of 0.077 µM.
For CCCCCn1c2c(c3ccc(OC)cc31)CN(C(=O)c1ccccc1)CC2 [ST-35], the EC50 (T98 g cells; [4]) was ~30 µM.
Work on CCn1c2ccccc2c2cc(C(=O)c3ccc(C)cc3)ccc21 [ST-63, (9-ethyl-carbazol-3-yl)(p-methylphenyl)methanone] yielded an EC50 (T98 g cells; [4]) of 0.715 µM.
With O=C1CCCc2c1c1ccccc1n2Cc1ccccc1 [ST-7] the “EC50 (μM)” value (T98 g cells; [3]) was “inactive”.
For CCCCCCC(C)(C)c1ccc([C@@H]2C[C@H](O)CC[C@H]2CCCO)c(O)c1 [CP55940, CP55,940], the “competition for WIN-2 binding” value [1] is given as “did not compete” and the “potencies and efficacies at killing these cells” value [2] is given as “inconsistent potencies and efficacies”.
In the case of Cc1c(C(=O)c2cccc3ccccc23)c2ccccc2n1C [ST-12], the EC50 (T98 g cells; Homo sapiens, T98G, 72 h) is reported as 3.1 µM.
For CCN1C(=O)/C(=N\NC(=O)c2cccc3ccccc23)c2ccccc21 [ST-37], the EC50 (T98 g cells; Homo sapiens, T98G, 72 h) was 5.6 µM.
For CC1=C(CCN2C(=O)COc3ccccc32)c2ccccc2C1C (stereo not drawn) [ST-4], the “EC50 (μM)” value (T98 g cells; [3]) was “inactive”.
Compound Cc1ccc(C(=O)c2c(C)n(C)c3ccccc23)c2ccccc12 [ST-10] has an EC50 (T98 g cells; Homo sapiens, T98G, 72 h) of 2.9 µM.
For Cc1nccn1CC1CCc2c(c3ccccc3n2C)C1=O (stereo not drawn) [ST-3], the “EC50 (μM)” value (T98 g cells; [3]) was “inactive”.
With CCCCCn1c2ccccc2c2cc(C(=O)N3CCCCC3)ccc21 [ST-32] the EC50 (T98 g cells; Homo sapiens, T98G, 72 h) was 6.2 µM.
Compound O=C(c1cccc2ccccc12)c1cn(CCN2CCOCC2)c2ccccc12 [ST-20] has an EC50 (T98 g cells; Homo sapiens, T98G, 72 h) of 23 µM.
In the case of Cc1ccc(C(=O)c2c3n(c4ccccc24)CCCC3)c2ccccc12 [ST-25], the GTPγS binding (AI receptors) is reported as “increase GTP[…]S binding” and the EC50 (T98 g cells; Homo sapiens, T98G, 72 h) is reported as 0.634 µM.
In the case of CCn1c2c(c3ccccc31)CN(S(=O)(=O)c1ccc(Cl)c3nonc13)CC2 [ST-59], the “EC50 (μM)” value (T98 g cells; [3]) is reported as “inactive”.
In the case of Cc1ccc(C(=O)c2c(C)n(CCN3CCOCC3)c3ncccc23)c2ccccc12 [ST-23], the GTPγS binding (AI receptors) is reported as “increase GTP[…]S binding”, the “cross-activation of human CB1 receptors (receptor internalization)” value (human CB1 receptors) is reported as “engage CB1 receptors” and the EC50 (T98 g cells; Homo sapiens, T98G, 72 h) is reported as 3.5 µM.
COc1ccc2c3cc(C(=O)N4CCCCC4)ccc3n(CC3CCCCC3)c2c1 [ST-36] showed an EC50 (T98 g cells; Homo sapiens, T98G, 72 h) of 3.7 µM.
For COc1ccc2c(c1)c(C(=O)N1CCCC(c3nnc4ccccn34)C1)c(C)n2C (stereo not drawn) [ST-41], the “EC50 (μM)” value (T98 g cells; [3]) was “inactive”.
Cc1ccc(C(=O)c2c(C)n(C3CC3)c3ccccc23)c2ccccc12 [ST-30] gave an EC50 (T98 g cells; Homo sapiens, T98G, 72 h) of 1 µM.
Compound Cc1ccc(C(=O)c2c(C)n(CCN3CCOCC3)c3cc(Cl)cc(Cl)c23)c2ccccc12 [ST-27] has an EC50 (T98 g cells; Homo sapiens, T98G, 72 h) of 0.409 µM.
Compound “5-ethyl-7-methoxy-2-[(4-methylnaphthalen-1-yl)carbonyl]-1H,2H,3H,4H,5H-pyrido[4,3-b]indole [ST-33]” has an EC50 (T98 g cells; T98 g cells, cell death, viability after 3 days, read-out: EC50) of 1.4 µM.
In the case of COc1ccc(C(=O)c2c(C)n(CCN3CCOCC3)c3ccccc23)cc1 [ST-17], the EC50 (T98 g cells; Homo sapiens, T98G, 72 h) is reported as 24 µM.
For CCn1c(C)c(C(=O)c2ccc(OC)cc2)c2ccccc21 [ST-47], the EC50 (T98 g cells; Homo sapiens, T98G, 72 h) was ~20 µM.
In the case of Cc1ccc(C(=O)n2c3ccccc3c3ccccc32)c2ccccc12 [ST-64], the EC50 (T98 g cells; [4]) is reported as 1.87 µM.
With Cc1ccc(C(=O)c2c(C)n(CCN3CCOCC3)c3ccccc23)c2ccccc12 [ST-48] the “cross-activation of human CB1 receptors (receptor internalization)” value (human CB1 receptors) was “engage CB1 receptors”, the EC50 (T98 g cells; Homo sapiens, T98G, 72 h) was 6.7 µM and the “cross-activation of human CB2 receptors (receptor internalization)” value (CB2) was “engage CB2 receptors”.
